US8551999B2, “Heterocyclic compound and pharmaceutical composition thereof” (Otsuka Pharmaceutical Co., Ltd., priority 2007, dated 2013)

SMILES	melting point [°C]
Cn1c(C(=O)N2CCN(Cc3ccccn3)CC2)cc2cccc(Oc3ccc(NC(=O)c4ccc(C(F)(F)F)cc4)cn3)c21.O=C(O)C(=O)O.O=C(O)C(=O)O [Example 243, N-{6-[1-Methyl-2-(4-pyridin-2-ylmethylpiperazine-1-carbonyl)-1H-indol-7-yloxy]pyridin-3-yl}-4-trifluoromethylbenzamide dioxalate]	121 to 123
Cc1ccc(C(=O)N(C)c2ccc(Oc3ccc4cc(C(=O)N5CCN(Cc6ccc(OCC(F)F)cc6)CC5)n(C)c4c3)nc2)cc1.Cl	207.8 to 209.3
COCc1ccc(CN2CCN(C(=O)c3cc4cc(Oc5ccc(N(C)C(=O)c6ccc(C(F)(F)F)cc6)cn5)ccc4n3C)CC2)cc1.O=C(O)/C=C\C(=O)O [Example 415, N-(6-{2-[4-(4-Methoxymethylbenzyl)piperazine-1-carbonyl]-1-methyl-1H-indol-5-yloxy}pyridin-3-yl)-N-methyl-4-trifluoromethyl-benzamide maleate]	137 to 139
Br.Cn1c(C(=O)N2CCN(Cc3ccc(OC(CF)CF)cc3)CC2)cc2ccc(Oc3ccc(NC(=O)c4ccc(Cl)c(Cl)c4)cn3)cc21 [Example 470, 3,4-Dichloro-N-[6-(2-{4-[4-(2-fluoro-1-fluoromethylethoxy)-benzyl]piperazine-1-carbonyl}-1-methyl-1H-indol-6-yloxy)pyridin-3-yl]benzamide hydrobromide]	242.8 to 243.9
CS(=O)(=O)O.CS(=O)(=O)O.Cc1c(Oc2ccc(NC(=O)c3ccc(C(F)(F)F)cc3)cn2)ccc2c1cc(C(=O)N1CCN(Cc3ccccn3)CC1)n2C [Example 234, N-{6-[1,4-Dimethyl-2-(4-pyridin-2-ylmethylpiperazine-1-carbonyl)-1H-indol-5-yloxy]pyridin-3-yl}-4-trifluoromethylbenzamide bismethanesulfonate]	149 to 150
CN(c1ccc(Oc2ccc3cc(C(=O)N4CCN(Cc5ccc(OCC(F)F)cc5)CC4)n(C)c3c2)nc1)S(=O)(=O)c1ccc(Cl)c(Cl)c1 [Example 512, 3,4-Dichloro-N-[6-(2-{4-[4-(2,2-difluoroethoxy)benzyl]piperazine-1-carbonyl}-1-methyl-1H-indol-6-yloxy)pyridin-3-yl]-N-methyl-benzenesulfonamide]	168.4 to 168.6
Br.CCOc1ccc(CN2CCN(C(=O)c3cc4cc(Oc5cc(C)c(NC(=O)c6ccc(Cl)c(Cl)c6)cn5)ccc4n3C)CC2)cc1 [Example 364, 3,4-Dichloro-N-(6-{2-[4-(4-ethoxybenzyl)piperazine-1-carbonyl]-1-methyl-1H-indol-5-yloxy}-4-methylpyridin-3-yl)benzamide hydrobromide]	197 to 199
Br.CC(C)Cc1ccc(CN2CCN(C(=O)c3cc4ccc(Oc5ccc(N(C)C(=O)c6ccc(C(F)(F)F)cc6)cn5)cc4n3C)CC2)cc1 [Example 430, N-(6-{2-[4-(4-Isobutylbenzyl)piperazine-1-carbonyl]-1-methyl-1H-indol-6-yloxy}pyridin-3-yl)-N-methyl-4-trifluoromethylbenzamide hydrobromide]	262 to 265
COc1ccc(CN2CCN(C(=O)c3cc4cc(Oc5ccc(N(C)C(=O)c6cc7cc(Br)ccc7[nH]6)cn5)ccc4n3C)CC2)cc1.O=C(O)/C=C\C(=O)O [Example 229, 5-Bromo-1H-indole-2-carboxylic acid (6-{2-[4-(4-methoxybenzyl)-piperazine-1-carbonyl]-1-methyl-1H-indol-5-yloxy}pyridin-3-yl)-methylamide maleate]	205 to 207
CCCOc1ccc(CN2CCN(C(=O)c3cc4ccc(Oc5ccc(N(C)C(=O)c6ccc(C(F)(F)F)cc6F)cn5)cc4n3C)CC2)cc1.Cl	247.1 to 249.2
CCCOc1ccc(CN2CCN(C(=O)c3cc4cc(Oc5ccc(N(C)C(=O)c6ccc(C(F)(F)F)cc6)cn5)ccc4n3C)CC2)cc1.O=C(O)/C=C\C(=O)O [Example 413, N-Methyl-N-(6-{1-methyl-2-[4-(4-propoxybenzyl)piperazine-1-carbonyl]-1H-indol-5-yloxy}pyridin-3-yl)-4-trifluoromethyl-benzamide maleate]	144 to 147
